Measurements as given in patent US6544991B2, “Compositions and methods for treating bacterial infections” (priority 2000, dated 2003).

Tests used:
VRSA strains = experiment: MIC by agar dilution or microbroth dilution method (NCCLS), VRSA strains; assay type: cell-based, Staph. aureus; conditions: VRSA strains (n = 10)
Method: (§1) Bacterial isolates were obtained from human infections. The isolates were maintained frozen in a liquid nitrogen freezer and plated on Trypticase Soy Agar (TSA) plates supplemented with 5% sheep blood. The quality control strain Staph. aureus 29213 was originally acquired from the American Type Culture Collection (Rockville, Md.).
(§2) MICs were determined by an agar dilution method or microbroth dilution method recommended by NCCLS. Synergy was assessed by agar dilution checker-board method. Minimal inhibitory concentrations (MICS) for each separate drug were determined. The fractional inhibitory concentration (FIC) values were calculated by the MIC of Drug A (e.g., sulbactam/ampicillin) and Drug B (e.g., linezolid or arbekacin) in combination/MIC of Drug A or B alone. The FIC index was determined according to the following formula: [formula]
In total, 48 MRSA strains were tested, including ten VRSA strains isolated from five different countries in the world, 33 MRSA strains isolated from ten Japanese university hospitals, and five MRSA type strains from Juntendo University, Department of Bacteriology, Tokyo, Japan.

Staph. aureus 29213 = experiment: MIC, quality control strain; assay type: cell-based
Method: as §1, §2

MRSA strains = experiment: MIC by agar dilution or microbroth dilution method (NCCLS); assay type: cell-based, Staph. aureus
Method: as §1, §2

[1] = strain ATCC 29213, control sample (Ex. 26)
[2] = strain ATCC29213, control sample (Ex. 37)
[3] = strain JSCC 581 (lacks the mecA gene)
[4] = strain JSCC 590 (lacks the mecA gene)

CO/N=C(\C(=O)N[C@@H]1C(=O)N2C(C(=O)O)=CCS[C@H]12)c1csc(N)n1 [CZX, ceftizoxime]
64 µg/mL: MIC Values (MRSA strains; strain N315)
4 µg/mL: MIC Values (Staph. aureus 29213; [2])
2048 µg/mL: MIC Values (MRSA strains; strain H1)
>128 mg/L: MICs 50% (VRSA strains) | MICs 90% (VRSA strains) | MICs Range (VRSA strains) | MICs 50% (MRSA strains; MRSA strains (n = 38)) | MICs 90% (MRSA strains; MRSA strains (n = 38))
8 µg/mL: MIC Values (Staph. aureus 29213; [1])
16 µg/mL: MIC Values (MRSA strains; strain JSCC 563) | MIC Values (MRSA strains; [3]) | MIC Values (MRSA strains; [4])
>128 µg/mL: MIC Values (MRSA strains; strain 85/2082) | MIC Values (MRSA strains; strain 99.3700W) | MIC Values (MRSA strains; strain 99.3759V) | MIC Values (MRSA strains; strain AMC 11094) | MIC Values (MRSA strains; strain BM12612(new)) | MIC Values (MRSA strains; strain HIP 5827) | MIC Values (MRSA strains; strain HIP 5836) | MIC Values (MRSA strains; strain HIP 6297) | MIC Values (MRSA strains; strain HIP 7737) | MIC Values (MRSA strains; strain JSCC 340) | MIC Values (MRSA strains; strain JSCC 351) | MIC Values (MRSA strains; strain JSCC 363) | MIC Values (MRSA strains; strain JSCC 381) | MIC Values (MRSA strains; strain JSCC 390) | MIC Values (MRSA strains; strain JSCC 401) | MIC Values (MRSA strains; strain JSCC 413) | MIC Values (MRSA strains; strain JSCC 431) | MIC Values (MRSA strains; strain JSCC 440) | MIC Values (MRSA strains; strain JSCC 451) | MIC Values (MRSA strains; strain JSCC 463) | MIC Values (MRSA strains; strain JSCC 481) | MIC Values (MRSA strains; strain JSCC 490) | MIC Values (MRSA strains; strain JSCC 501) | MIC Values (MRSA strains; strain JSCC 513) | MIC Values (MRSA strains; strain JSCC 531) | MIC Values (MRSA strains; strain JSCC 540) | MIC Values (MRSA strains; strain JSCC 551) | MIC Values (MRSA strains; strain JSCC 601) | MIC Values (MRSA strains; strain JSCC 640) | MIC Values (MRSA strains; strain JSCC 651) | MIC Values (MRSA strains; strain JSCC 663) | MIC Values (MRSA strains; strain JSCC 681) | MIC Values (MRSA strains; strain JSCC 690) | MIC Values (MRSA strains; strain JSCC 701) | MIC Values (MRSA strains; strain JSCC 713) | MIC Values (MRSA strains; strain JSCC 731) | MIC Values (MRSA strains; strain JSCC 740) | MIC Values (MRSA strains; strain JSCC 751) | MIC Values (MRSA strains; strain JSCC 763) | MIC Values (MRSA strains; strain JSCC 781) | MIC Values (MRSA strains; strain JSCC 870) | MIC Values (MRSA strains; strain LIM 2) | MIC Values (MRSA strains; strain Mu 3) | MIC Values (MRSA strains; strain Mu 50) | MIC Values (MRSA strains; strain NCTC 10442)

Cc1onc(-c2ccccc2)c1C(=O)N[C@@H]1C(=O)N2[C@@H]1SC(C)(C)[C@@H]2C(=O)O [MPIPC, oxacillin]
1 µg/mL: MIC Values (MRSA strains; [3]) | MIC Values (MRSA strains; [4])
2 µg/mL: MIC Values (MRSA strains; strain JSCC 563)
0.25 µg/mL: MIC Values (Staph. aureus 29213; [1]) | MIC Values (Staph. aureus 29213; [2])
64 µg/mL: MIC Values (MRSA strains; strain 85/2082) | MIC Values (MRSA strains; strain HIP 6297) | MIC Values (MRSA strains; strain JSCC 601)
16 µg/mL: MIC Values (MRSA strains; strain N315)
